Test results as given in patent publication US20250145598A1, “ACID CERAMIDASE INHIBITORS AND USES THEREOF” (The Regents of the University of California, priority 2021, published 2025).

Molecular target: T1, Acid ceramidase (Homo sapiens, UniProt Q13510)
T1 sequence (Q13510 22-395): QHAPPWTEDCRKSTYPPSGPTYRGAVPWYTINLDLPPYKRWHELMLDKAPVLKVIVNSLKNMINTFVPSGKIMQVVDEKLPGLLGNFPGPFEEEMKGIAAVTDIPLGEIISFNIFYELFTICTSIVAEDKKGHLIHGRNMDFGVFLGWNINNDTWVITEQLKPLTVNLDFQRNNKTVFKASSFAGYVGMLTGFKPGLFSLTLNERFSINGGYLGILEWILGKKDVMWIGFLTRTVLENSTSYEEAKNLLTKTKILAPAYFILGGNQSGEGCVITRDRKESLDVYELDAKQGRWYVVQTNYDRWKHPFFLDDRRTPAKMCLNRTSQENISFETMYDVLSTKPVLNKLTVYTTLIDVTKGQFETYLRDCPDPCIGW
Test: Acid ceramidase assay (AC in vitro IC50)
Assay type: biochemical
Settings: Acid ceramidase assay data of example compounds

Compound	IC50 [nM]
CS(=O)(=O)c1ccc(COc2ccc(-c3cn(C(=O)NCC4CCN(c5ccc6c(c5)CCO6)C4)cn3)cc2)cc1 (centres unmarked) [AC2020601-0506, N-((1-(2,3-dihydrobenzofuran-5-yl)pyrrolidin-3-yl)methyl)-4-(4-(4-(methylsulfonyl)benzyloxy)phenyl)-1H-imidazole-1-carboxamide]	< 300
N#CCS(=O)(=O)c1ccc(COc2ccc(-c3cn(C(=O)NCC4CCN(c5ccccc5)C4)cn3)cc2)cc1 (centres unmarked) [AC2020601-0507, 4-(4-(4-(cyanomethylsulfonyl)benzyloxy)phenyl)-N-((1-phenylpyrrolidin-3-yl)methyl)-1H-imidazole-1-carboxamide]	< 300
